Assay results published in patent publication US20070128217A1 (priority 2003, published 2007).

Tests used:
[1] = test system: rabbit serum obtained by immunizing a rabbit with the SARS-CoV strain Frankfurt 1; type: binding; design: Binding of a rabbit serum to linear peptides / Binding of a rabbit serum to looped peptides / Rabbit serum linear peptides / Rabbit serum looped peptides / Binding of a rabbit serum to linear peptides of protein N of SARS-CoV Urbani (Rabbit serum linear peptides) / Binding of a rabbit serum to looped/cyclic peptides of protein N of SARS-CoV Urbani (Rabbit serum looped peptides): unit not given here
[2] = test system: control sera (pooled serum of ten healthy LUMC hospital workers; commercial negative donor pooled serum from the Dutch bloodbank); type: binding, human; design: Binding of Control serum LUMC to linear peptides / Binding of Control serum Blood-bank to linear peptides / Binding of Control serum LUMC to looped peptides / Binding of Control Serum Blood-Bank to Looped peptides / Binding of Control serum LUMC to linear peptides of the protein M of SARS-CoV Urbani / Binding of Control serum Blood-bank to linear peptides of the protein M of SARS-CoV Urbani / Binding of Control serum LUMC to looped peptides of the protein M of SARS-CoV Urbani / Binding of Control Serum Blood-Bank to Looped peptides of the protein M of SARS-CoV Urbani: unit not given here
[3] = test system: antibodies in sera from SARS patients (sera 1a, 1b, 2, 6, 37, 62, London, SARS-yellow, SARS-green); type: binding, human; design: Binding of serum 6 to linear peptides of protein X1 of SARS-CoV Urbani / Binding of serum 37 to linear peptides of protein X1 of SARS-CoV Urbani / Binding of serum 6 to looped/cyclic peptide (PEPSCAN-ELISA) / Binding of serum 37 to looped/cyclic peptide (PEPSCAN-ELISA) / Binding of serum 37 to looped/cyclic peptides of protein X1 of SARS-CoV Urbani / Binding of serum 6 to linear peptides of protein X2 / Binding of serum 37 to linear peptides of protein X2 / Binding of serum 37 to looped/cyclic peptides of protein X2 of SARS-CoV Urbani / Binding of serum 6 to linear peptides of protein M of SARS-CoV Urbani / Binding of serum 37 to linear peptides of protein M of SARS-CoV Urbani / Binding of serum 6 to looped/cyclic peptides of protein M of SARS-CoV Urbani / Binding of serum 37 to looped/cyclic peptides of protein M of SARS-CoV Urbani / Binding of serum 6 to linear peptides of protein X3 of SARS-CoV Urbani / Binding of serum 37 to linear peptides of protein X3 of SARS-CoV Urbani / Binding of serum 37 to looped/cyclic peptides of protein X3 of SARS-CoV Urbani / Binding of serum 6 to linear peptides of protein X4 of SARS-CoV Urbani / Binding of serum 37 to linear peptides of protein X4 of SARS-CoV Urbani / Binding of serum 37 to looped/cyclic peptides of protein X4 of SARS-CoV Urbani / Binding of serum 6 to linear peptides of protein X5 of SARS-CoV Urbani / Binding of serum 37 to linear peptides of protein X5 of SARS-CoV Urbani / Binding of serum 37 to looped/cyclic peptides of protein X5 of SARS-CoV Urbani / Binding of serum 6 to linear peptides of protein N of SARS-CoV Urbani / Binding of serum 37 to linear peptides of protein N of SARS-CoV Urbani / Binding of serum 6 to linear peptide (PEPSCAN-ELISA) / Binding of serum 1a to looped/cyclic peptides of protein N of SARS-CoV Urbani / Binding of serum 1b to looped/cyclic peptides of protein N of SARS-CoV Urbani / Binding of serum 2 to looped/cyclic peptides of protein N of SARS-CoV Urbani / Binding of serum 6 to looped/cyclic peptides of protein N of SARS-CoV Urbani / Binding of serum 37 to looped/cyclic peptides of protein N of SARS-CoV Urbani / Binding of serum 62 to looped/cyclic peptides of protein N of SARS-CoV Urbani / Binding of serum London to looped/cyclic peptides of protein N of SARS-CoV Urbani / Binding of serum SARS-green to looped/cyclic peptides of protein N of SARS-CoV Urbani: unit not given here

PLMESELVIGAVIIR
Rabbit serum linear peptides [1]: 0.2
Rabbit serum looped peptides [1]: 0.1
Binding of Control Serum Blood-Bank to Looped peptides of the protein M of SARS-CoV Urbani [2]: 0.9
Binding of Control serum Blood-bank to linear peptides of the protein M of SARS-CoV Urbani [2]: 1.0
Binding of Control serum LUMC to linear peptides of the protein M of SARS-CoV Urbani [2]: 0.8
Binding of Control serum LUMC to looped peptides of the protein M of SARS-CoV Urbani [2]: 0.8
Binding of serum 1a to linear peptides of protein M of SARS-CoV Urbani [3]: 0.7
Binding of serum 1a to looped/cyclic peptides of protein M of SARS-CoV Urbani [3]: 0.7
Binding of serum 1b to linear peptides of protein M of SARS-CoV Urbani [3]: 0.6
Binding of serum 1b to looped/cyclic peptides of protein M of SARS-CoV Urbani [3]: 0.6
Binding of serum 2 to linear peptides of protein M of SARS-CoV Urbani [3]: 0.7
Binding of serum 2 to looped/cyclic peptides of protein M of SARS-CoV Urbani [3]: 0.7
Binding of serum 6 to linear peptides of protein M of SARS-CoV Urbani [3]: 0.4
Binding of serum 6 to looped/cyclic peptides of protein M of SARS-CoV Urbani [3]: 0.8
Binding of serum 37 to linear peptides of protein M of SARS-CoV Urbani [3]: 0.7
Binding of serum 37 to looped/cyclic peptides of protein M of SARS-CoV Urbani [3]: 0.8
Binding of serum 62 to linear peptides of protein M of SARS-CoV Urbani [3]: 0.5
Binding of serum 62 to looped/cyclic peptides of protein M of SARS-CoV Urbani [3]: 0.8
Binding of serum London to linear peptides of protein M of SARS-CoV Urbani [3]: 0.3
Binding of serum London to looped/cyclic peptides of protein M of SARS-CoV Urbani [3]: 0.2
Binding of serum SARS-green to linear peptides of protein M of SARS-CoV Urbani [3]: 0.5
Binding of serum SARS-green to looped/cyclic peptides of protein M of SARS-CoV Urbani [3]: 0.3
Binding of serum SARS-yellow to linear peptides of protein M of SARS-CoV Urbani [3]: 0.2
Binding of serum SARS-yellow to looped/cyclic peptides of protein M of SARS-CoV Urbani [3]: 0.7

ELKQLLEQWNLVIGF
Rabbit serum linear peptides [1]: 0.0
Rabbit serum looped peptides [1]: 0.2
Binding of Control Serum Blood-Bank to Looped peptides of the protein M of SARS-CoV Urbani [2]: 0.6
Binding of Control serum Blood-bank to linear peptides of the protein M of SARS-CoV Urbani [2]: 0.8
Binding of Control serum LUMC to linear peptides of the protein M of SARS-CoV Urbani [2]: 0.7
Binding of Control serum LUMC to looped peptides of the protein M of SARS-CoV Urbani [2]: 0.7
Binding of serum 1a to linear peptides of protein M of SARS-CoV Urbani [3]: 0.8
Binding of serum 1a to looped/cyclic peptides of protein M of SARS-CoV Urbani [3]: 0.6
Binding of serum 1b to linear peptides of protein M of SARS-CoV Urbani [3]: 0.8
Binding of serum 1b to looped/cyclic peptides of protein M of SARS-CoV Urbani [3]: 0.6
Binding of serum 2 to linear peptides of protein M of SARS-CoV Urbani [3]: 0.5
Binding of serum 2 to looped/cyclic peptides of protein M of SARS-CoV Urbani [3]: 0.5
Binding of serum 6 to linear peptides of protein M of SARS-CoV Urbani [3]: 0.6
Binding of serum 6 to looped/cyclic peptides of protein M of SARS-CoV Urbani [3]: 0.8
Binding of serum 37 to linear peptides of protein M of SARS-CoV Urbani [3]: 0.6
Binding of serum 37 to looped/cyclic peptides of protein M of SARS-CoV Urbani [3]: 0.7
Binding of serum 62 to linear peptides of protein M of SARS-CoV Urbani [3]: 0.5
Binding of serum 62 to looped/cyclic peptides of protein M of SARS-CoV Urbani [3]: 0.5
Binding of serum London to linear peptides of protein M of SARS-CoV Urbani [3]: 0.6
Binding of serum London to looped/cyclic peptides of protein M of SARS-CoV Urbani [3]: 0.3
Binding of serum SARS-green to linear peptides of protein M of SARS-CoV Urbani [3]: 0.5
Binding of serum SARS-green to looped/cyclic peptides of protein M of SARS-CoV Urbani [3]: 0.7
Binding of serum SARS-yellow to linear peptides of protein M of SARS-CoV Urbani [3]: 0.3
Binding of serum SARS-yellow to looped/cyclic peptides of protein M of SARS-CoV Urbani [3]: 0.9

ILRIGTQVLKTMSLY
Binding of a rabbit serum to linear peptides [1]: 0.3
Binding of a rabbit serum to looped peptides [1]: 0.5
Binding of Control Serum Blood-Bank to Looped peptides [2]: 0.7
Binding of Control serum Blood-bank to linear peptides [2]: 0.6
Binding of Control serum LUMC to linear peptides [2]: 0.4
Binding of Control serum LUMC to looped peptides [2]: 0.7
Binding of serum 1a to linear peptides of protein X2 [3]: 0.7
Binding of serum 1a to looped/cyclic peptides of protein X2 of SARS-CoV Urbani [3]: 0.6
Binding of serum 1b to linear peptides of protein X2 [3]: 0.5
Binding of serum 1b to looped/cyclic peptides of protein X2 of SARS-CoV Urbani [3]: 0.5
Binding of serum 2 to linear peptides of protein X2 [3]: 0.4
Binding of serum 2 to looped/cyclic peptides of protein X2 of SARS-CoV Urbani [3]: 0.3
Binding of serum 6 to linear peptides of protein X2 [3]: 0.4
Binding of serum 6 to looped/cyclic peptides of protein X2 of SARS-CoV Urbani [3]: 0.5
Binding of serum 37 to linear peptides of protein X2 [3]: 0.6
Binding of serum 37 to looped/cyclic peptides of protein X2 of SARS-CoV Urbani [3]: 0.5
Binding of serum 62 to linear peptides of protein X2 [3]: 0.6
Binding of serum 62 to looped/cyclic peptides of protein X2 of SARS-CoV Urbani [3]: 0.6
Binding of serum London to linear peptides of protein X2 [3]: 0.4
Binding of serum London to looped/cyclic peptides of protein X2 of SARS-CoV Urbani [3]: 0.3
Binding of serum SARS-green to linear peptides of protein X2 [3]: 0.4
Binding of serum SARS-green to looped/cyclic peptides of protein X2 of SARS-CoV Urbani [3]: 0.3
Binding of serum SARS-yellow to linear peptides of protein X2 [3]: 0.5
Binding of serum SARS-yellow to looped/cyclic peptides of protein X2 of SARS-CoV Urbani [3]: 0.6

MSRRRLLACLCKHKK
Binding of a rabbit serum to linear peptides [1]: 0.2
Binding of a rabbit serum to looped peptides [1]: 0.3
Binding of Control Serum Blood-Bank to Looped peptides [2]: 0.3
Binding of Control serum Blood-bank to linear peptides [2]: 0.7
Binding of Control serum LUMC to linear peptides [2]: 0.5
Binding of Control serum LUMC to looped peptides [2]: 0.2
Binding of serum 1a to looped/cyclic peptides of protein X2 of SARS-CoV Urbani [3]: 0.2
Binding of serum 1b to looped/cyclic peptides of protein X2 of SARS-CoV Urbani [3]: 0.1
Binding of serum 2 to looped/cyclic peptides of protein X2 of SARS-CoV Urbani [3]: 0.0
Binding of serum 6 to looped/cyclic peptides of protein X2 of SARS-CoV Urbani [3]: 0.1
Binding of serum 37 to looped/cyclic peptides of protein X2 of SARS-CoV Urbani [3]: 0.2
Binding of serum 62 to looped/cyclic peptides of protein X2 of SARS-CoV Urbani [3]: 0.3
Binding of serum London to looped/cyclic peptides of protein X2 of SARS-CoV Urbani [3]: 0.1
Binding of serum SARS-green to looped/cyclic peptides of protein X2 of SARS-CoV Urbani [3]: 0.1
Binding of serum SARS-yellow to looped/cyclic peptides of protein X2 of SARS-CoV Urbani [3]: 0.1
Recognition of the peptide by sera of SARS-CoV infected individuals, and form (linear, looped/cyclic) in which it is recognized [3]: recognized in linear form

GALIARCWYLHEGHQ
Rabbit serum linear peptides [1]: 0.6
Rabbit serum looped peptides [1]: 0.0
Binding of Control Serum Blood-Bank to Looped peptides [2]: 0.3
Binding of Control serum Blood-bank to linear peptides [2]: 0.6
Binding of Control serum LUMC to linear peptides [2]: 0.4
Binding of Control serum LUMC to looped peptides [2]: 0.2
Binding of serum 1a to linear peptides of protein X5 of SARS-CoV Urbani [3]: 0.7
Binding of serum 1a to looped/cyclic peptides of protein X5 of SARS-CoV Urbani [3]: 0.4
Binding of serum 1b to linear peptides of protein X5 of SARS-CoV Urbani [3]: 0.6
Binding of serum 1b to looped/cyclic peptides of protein X5 of SARS-CoV Urbani [3]: 0.4
Binding of serum 2 to linear peptides of protein X5 of SARS-CoV Urbani [3]: 0.6
Binding of serum 2 to looped/cyclic peptides of protein X5 of SARS-CoV Urbani [3]: 0.7
Binding of serum 6 to linear peptides of protein X5 of SARS-CoV Urbani [3]: 0.7
Binding of serum 6 to looped/cyclic peptides of protein X5 of SARS-CoV Urbani [3]: 0.3
Binding of serum 37 to linear peptides of protein X5 of SARS-CoV Urbani [3]: 0.7
Binding of serum 37 to looped/cyclic peptides of protein X5 of SARS-CoV Urbani [3]: 0.4
Binding of serum 62 to linear peptides of protein X5 of SARS-CoV Urbani [3]: 0.7
Binding of serum 62 to looped/cyclic peptides of protein X5 of SARS-CoV Urbani [3]: 0.3
Binding of serum London to linear peptides of protein X5 of SARS-CoV Urbani [3]: 0.6
Binding of serum London to looped/cyclic peptides of protein X5 of SARS-CoV Urbani [3]: 0.1
Binding of serum SARS-green to linear peptides of protein X5 of SARS-CoV Urbani [3]: 0.6
Binding of serum SARS-green to looped/cyclic peptides of protein X5 of SARS-CoV Urbani [3]: 0.8
Binding of serum SARS-yellow to linear peptides of protein X5 of SARS-CoV Urbani [3]: 0.1
Binding of serum SARS-yellow to looped/cyclic peptides of protein X5 of SARS-CoV Urbani [3]: 0.3
